This is an account of results in patent US10981891B2, “Antibacterial compounds and uses thereof” (priority 2016, dated 2021).

The structures appear in SMILES notation. Values after ≈ are worked out from the molar mass of the structure shown.

One assay concerns M. tuberculosis H37Rv (ATCC 27294). Put plainly: Microplate Alamar Blue assay (MABA), MIC against replicating M. tuberculosis H37Rv. It counts as cell-based. The note with it: Mycobacterium tuberculosis, 168 h, read-out: M. tuberculosis MIC.
The term MIC denotes the lowest concentration found to suppress growth. On to `COc1nc2ccc(Br)cc2cc1C(c1ccnc(OC)c1OC)C(O)(CCN(C)C)c1cc2ccccc2o1` (centres unmarked) [Example 7, 2-(Benzofuran-2-yl)-1-(6-bromo-2-methoxyquinolin-3-yl)-1-(2,3-dimethoxypyridin-4-yl)-4-(dimethylamino)butan-2-ol], for which the MIC worked out at 0.03 µg/mL (≈ 0.0495 µM).
As to `COc1nc2ccc(Br)cc2cc1C(c1ccccc1)C(O)(CCN(C)C)c1cccc2ccsc12` (centres unmarked) [Example 15, 2-(Benzo[b]thiophen-7-yl)-1-(6-bromo-2-methoxyquinolin-3-yl)-4-(dimethylamino)-1-phenylbutan-2-ol], the MIC was determined as 0.02 µg/mL (≈ 0.0356 µM).

Still in this assay, the particulars now being: Mycobacterium tuberculosis, 168 h; H37Rv, MABA, 7H12 media, 7 days at 37° C.; MIC = lowest concentration reducing fluorescence by 90% relative to controls; read-out: M. tuberculosis MIC.
As to `COc1cc(C(O)(CCN(C)C)C(c2cccc(C)c2)c2cc3cc(Br)ccc3nc2OC)cc(OC)n1` (centres unmarked) [Example 1, 1-(6-Bromo-2-methoxyquinolin-3-yl)-2-(2,6-dimethoxypyridin-4-yl)-4-(dimethylamino)-1-(m-tolyl)butan-2-ol], the MIC is < 0.02 µg/mL.
The same measure, in the same setting: the same measure for `CCOc1cc(C(O)(CCN(C)C)C(c2cc3cc(Br)ccc3nc2OC)c2ccnc(OC)c2OC)cc(OC(C)C)n1` (centres unmarked) [Example 23, 1-(6-Bromo-2-methoxyquinolin-3-yl)-1-(2,3-dimethoxypyridin-4-yl)-4-(dimethylamino)-2-(2-ethoxy-6-isopropoxypyridin-4-yl)butan-2-ol]: < 0.02 µg/mL; for `COc1nc2ccc(C#N)cc2cc1C(c1cccc(F)c1)C(O)(CCN(C)C)c1cccc2ccoc12` (centres unmarked) [Example 74, 3-(2-(Benzofuran-7-yl)-4-(dimethylamino)-1-(3-fluorophenyl)-2-hydroxybutyl)-2-methoxyquinoline-6-carbonitrile]: 0.04 µg/mL (≈ 0.0785 µM); for `COc1cc(C(O)(CCN(C)C)C(c2cc3cc(C#N)ccc3nc2OC)c2cccc3c2OCCO3)cc(OC(F)F)n1` (centres unmarked) [Example 91, 3-(2-(2-(Difluoromethoxy)-6-methoxypyridin-4-yl)-1-(2,3-dihydrobenzo[b][1,4]dioxin-5-yl)-4-(dimethylamino)-2-hydroxybutyl)-2-methoxyquinoline-6-carbonitrile]: 0.02 µg/mL (≈ 0.033 µM).
Consider `COc1cc(C(c2cc3cc(Br)ccc3nc2OC)C(O)(CCN(C)C)c2cccc(F)c2)cnc1OC` (centres unmarked) [Example 3, 1-(6-Bromo-2-methoxyquinolin-3-yl)-1-(5,6-dimethoxypyridin-3-yl)-4-(dimethylamino)-2-(3-fluorophenyl)butan-2-ol], for which the MIC amounted to 0.47 µg/mL (≈ 0.804 µM).
Still for that read-out and setting: with `COc1cc(C(O)(CCN(C)C)C(c2cc3cc(C#N)ccc3nc2OC)c2cccc(OC)c2F)cc(OC(F)F)n1` (centres unmarked) [Example 82, 3-(2-(2-(Difluoromethoxy)-6-methoxypyridin-4-yl)-4-(dimethylamino)-1-(2-fluoro-3-methoxyphenyl)-2-hydroxybutyl)-2-methoxyquinoline-6-carbonitrile] the figure was < 0.02 µg/mL; with `COc1cc(C(O)(CCN(C)C)C(c2cc3cc(Br)ccc3nc2OC)c2cccc3c2OCCO3)cc(OC(F)F)n1` (centres unmarked) [Example 58, 1-(6-Bromo-2-methoxyquinolin-3-yl)-2-(2-(difluoromethoxy)-6-methoxypyridin-4-yl)-1-(2,3-dihydrobenzo[b][1,4]dioxin-5-yl)-4-(dimethylamino)butan-2-ol], < 0.01 µg/mL; with `CCOc1cc(C(O)(CCN(C)C)C(c2cc(OC)nc(OC)c2)c2cc3cc(Br)ccc3nc2OC)cc(OC(C)C)n1` (centres unmarked) [Example 24, 1-(6-Bromo-2-methoxyquinolin-3-yl)-1-(2,6-dimethoxypyridin-4-yl)-4-(dimethylamino)-2-(2-ethoxy-6-isopropoxypyridin-4-yl)butan-2-ol], < 0.02 µg/mL.
For the compound `CCSc1cc(C(O)(CCN(C)C)C(c2cc3cc(Br)ccc3nc2OC)c2cccc(OC)c2F)cc(SCC)n1` (centres unmarked) [Example 44, 2-(2,6-Bis(ethylthio)pyridin-4-yl)-1-(6-bromo-2-methoxyquinolin-3-yl)-4-(dimethylamino)-1-(2-fluoro-3-methoxyphenyl)butan-2-ol], the MIC is < 0.02 µg/mL.
The same measure, in the same setting: the same measure for `COc1cc(C(O)(CCN(C)C)C(c2cc3cc(C#N)ccc3nc2OC)c2ccnc(OC)c2OC)cc(OC(F)F)n1` (centres unmarked) [Example 83, 3-(2-(2-(Difluoromethoxy)-6-methoxypyridin-4-yl)-1-(2,3-dimethoxypyridin-4-yl)-4-(dimethylamino)-2-hydroxybutyl)-2-methoxyquinoline-6-carbonitrile]: < 0.02 µg/mL; for `COc1cc(C(O)(CCN(C)C)C(c2cc3cc(Br)ccc3nc2OC)c2cccc(C)c2F)cc(OC(F)F)n1` (centres unmarked) [Example 54, 1-(6-Bromo-2-methoxyquinolin-3-yl)-2-(2-(difluoromethoxy)-6-methoxypyridin-4-yl)-4-(dimethylamino)-1-(2-fluoro-3-methylphenyl)butan-2-ol]: 0.01 µg/mL (≈ 0.0158 µM); for `CCOc1cc(C(c2cc3cc(Br)ccc3nc2OC)C(O)(CCN(C)C)c2cccc3ccoc23)cc(OC)n1` (centres unmarked) [Example 22, 2-(Benzofuran-7-yl)-1-(6-bromo-2-methoxyquinolin-3-yl)-4-(dimethylamino)-1-(2-ethoxy-6-methoxypyridin-4-yl)butan-2-ol]: < 0.02 µg/mL.
Regarding `COc1cc(C(O)(CCN(C)C)C(c2cc3cc(C#N)ccc3nc2OC)c2cccc(C)c2F)cc(OC(F)F)n1` (centres unmarked) [Example 88, 3-(2-(2-(Difluoromethoxy)-6-methoxypyridin-4-yl)-4-(dimethylamino)-1-(2-fluoro-3-methylphenyl)-2-hydroxybutyl)-2-methoxyquinoline-6-carbonitrile], the MIC is 0.01 µg/mL (≈ 0.0172 µM).
For the compound `COc1cc(C(c2cc3cc(Br)ccc3nc2OC)C(O)(CCN(C)C)c2cccc3ccoc23)cc(OC(C)C)n1` (centres unmarked) [Example 21, 2-(Benzofuran-7-yl)-1-(6-bromo-2-methoxyquinolin-3-yl)-4-(dimethylamino)-1-(2-isopropoxy-6-methoxypyridin-4-yl)butan-2-ol], the MIC was < 0.02 µg/mL.
Same read-out and setting: the same measure for `COc1cc(C(O)(CCN(C)C)C(c2cc3cc(C#N)ccc3nc2OC)c2cccc(C)c2F)cc(OC)n1` (centres unmarked) [Example 86, 3-(2-(2,6-Dimethoxypyridin-4-yl)-4-(dimethylamino)-1-(2-fluoro-3-methylphenyl)-2-hydroxybutyl)-2-methoxyquinoline-6-carbonitrile]: < 0.02 µg/mL.
For `COc1cc(C(O)(CCN(C)C)C(c2cc3cc(Br)ccc3nc2OC)c2cccc(OC)c2F)cc(OC(F)F)n1` (centres unmarked) [Example 49, 1-(6-Bromo-2-methoxyquinolin-3-yl)-2-(2-(difluoromethoxy)-6-methoxypyridin-4-yl)-4-(dimethylamino)-1-(2-fluoro-3-methoxyphenyl)butan-2-ol], the MIC was 0.04 µg/mL (≈ 0.0615 µM).
Same read-out and setting: with `CCOc1cc(C(O)(CCN(C)C)C(c2cccc(C)c2)c2cc3cc(Br)ccc3nc2OC)cc(OCC)n1` (centres unmarked) [Example 34, 1-(6-Bromo-2-methoxyquinolin-3-yl)-2-(2,6-diethoxypyridin-4-yl)-4-(dimethylamino)-1-(m-tolyl)butan-2-ol] the figure was 0.04 µg/mL (≈ 0.0657 µM).
On the same count and under the same terms, the same measure for `COc1cc(C(O)(CCN(C)C)C(c2cc3cc(Br)ccc3nc2OC)c2ccnc(OC)c2OC)cc(N(C)C)n1` (centres unmarked) [Example 68, 1-(6-Bromo-2-methoxyquinolin-3-yl)-1-(2,3-dimethoxypyridin-4-yl)-4-(dimethylamino)-2-(2-(dimethylamino)-6-methoxypyridin-4-yl)butan-2-ol]: 0.01 µg/mL (≈ 0.0156 µM).
With `COc1cc(C(O)(CCN(C)C)C(c2cc3cc(Br)ccc3nc2OC)c2cccc(OC)c2F)cc(OC(C)C)n1` (centres unmarked) [Example 16, 1-(6-Bromo-2-methoxyquinolin-3-yl)-4-(dimethylamino)-1-(2-fluoro-3-methoxyphenyl)-2-(2-isopropoxy-6-methoxypyridin-4-yl)butan-2-ol], the MIC is < 0.02 µg/mL.
The same measure, in the same setting: with `COc1cc(C(O)(CCN(C)C)C(c2ccc(C)s2)c2cc3cc(Br)ccc3nc2OC)cc(OC)n1` (centres unmarked) [Example 11, 1-(6-Bromo-2-methoxyquinolin-3-yl)-2-(2,6-dimethoxypyridin-4-yl)-4-(dimethylamino)-1-(5-methylthiophen-2-yl)butan-2-ol] the figure was < 0.02 µg/mL; with `COc1nc2ccc(C#N)cc2cc1C(c1cccc2c1OCCO2)C(O)(CCN(C)C)c1cc(SC)nc(SC)c1` (centres unmarked) [Example 90, 3-(2-(2,6-Bis(methylthio)pyridin-4-yl)-1-(2,3-dihydrobenzo[b][1,4]dioxin-5-yl)-4-(dimethylamino)-2-hydroxybutyl)-2-methoxyquinoline-6-carbonitrile], 0.01 µg/mL (≈ 0.0166 µM); with `COc1cc(C(O)(CCN(C)C)C(c2ccc(C)s2)c2cc3cc(C#N)ccc3nc2OC)cc(OC)n1` (centres unmarked) [Example 75, 3-(2-(2,6-Dimethoxypyridin-4-yl)-4-(dimethylamino)-2-hydroxy-1-(5-methylthiophen-2-yl)butyl)-2-methoxyquinoline-6-carbonitrile], 0.19 µg/mL (≈ 0.357 µM).
On the same count and under the same terms, with `COc1nc2ccc(C#N)cc2cc1C(c1cccc(C)c1F)C(O)(CCN(C)C)c1cc(SC)nc(SC)c1` (centres unmarked) [Example 89, 3-(2-(2,6-Bis(methylthio)pyridin-4-yl)-4-(dimethylamino)-1-(2-fluoro-3-methylphenyl)-2-hydroxybutyl)-2-methoxyquinoline-6-carbonitrile] the figure was 0.02 µg/mL (≈ 0.0347 µM); with `COc1nc2ccc(Br)cc2cc1C(c1ccccc1)C(O)(CCN(C)C)c1cccc2ccoc12` (centres unmarked) [Example 2, 2-(Benzofuran-7-yl)-1-(6-bromo-2-methoxyquinolin-3-yl)-4-(dimethylamino)-1-phenylbutan-2-ol], 0.07 µg/mL (≈ 0.128 µM); with `COc1cc(C(O)(CCN(C)C)C(c2cc3cc(Br)ccc3nc2OC)c2ccnc(OC)c2OC)cc(OC(C)C)n1` (centres unmarked) [Example 18, 1-(6-Bromo-2-methoxyquinolin-3-yl)-1-(2,3-dimethoxypyridin-4-yl)-4-(dimethylamino)-2-(2-isopropoxy-6-methoxypyridin-4-yl)butan-2-ol], < 0.01 µg/mL.
Turning to `CNCCC(O)(c1cc(OC)nc(OC)c1)C(c1ccc(C)s1)c1cc2cc(C#N)ccc2nc1OC` (centres unmarked) [Example 78, 3-(2-(2,6-Dimethoxypyridin-4-yl)-2-hydroxy-4-(methylamino)-1-(5-methylthiophen-2-yl)butyl)-2-methoxyquinoline-6-carbonitrile], the MIC turned out to be 0.09 µg/mL (≈ 0.174 µM).
Take `COc1nc2ccc(Br)cc2cc1C(c1cccc(C)c1F)C(O)(CCN(C)C)c1cc(SC)nc(SC)c1` (centres unmarked) [Example 55, 2-(2,6-Bis(methylthio)pyridin-4-yl)-1-(6-bromo-2-methoxyquinolin-3-yl)-4-(dimethylamino)-1-(2-fluoro-3-methylphenyl)butan-2-ol]: the MIC is < 0.004 µg/mL.
